{
  "source": "paper PMC2897805",
  "about": "“Evolution of AANAT: expansion of the gene family in the cephalochordate amphioxus” (2010)",
  "target": "T1, bfAANATα (Branchiostoma floridae, UniProt B9TUB5)",
  "T1 construct": "gene AANATalpha; full-length cDNA clone from B. floridae head, GST fusion (pGEX 4T-1), E. coli BL21Gold(DE3) pLysS",
  "T1 sequence (B9TUB5 1-247)": "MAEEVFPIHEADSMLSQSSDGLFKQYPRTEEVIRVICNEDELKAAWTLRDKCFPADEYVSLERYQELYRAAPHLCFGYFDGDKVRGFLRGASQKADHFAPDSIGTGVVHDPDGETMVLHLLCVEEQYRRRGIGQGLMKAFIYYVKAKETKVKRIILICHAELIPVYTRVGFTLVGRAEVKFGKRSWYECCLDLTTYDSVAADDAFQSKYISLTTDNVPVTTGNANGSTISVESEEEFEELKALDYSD",
  "assay": "acetyltransferase activity assay, recombinant GST fusion; also displaces CoA-HNE",
  "type": "biochemical",
  "data": [
    {"smiles": "CC(C)(CO[P@@](=O)(O)O[P@@](=O)(O)OC[C@H]1O[C@@H](n2cnc3c(N)ncnc32)[C@H](O)[C@@H]1OP(=O)(O)O)[C@@H](O)C(=O)NCCC(=O)NCCSCC(=O)NCCc1c[nH]c2ccccc12", "note": "[CoA-T]", "values": [
      {"measurement": "IC50", "value": 3, "unit": "µM"}
    ]}
  ]
}
